Experimental data from PMC10845145, “Synergistic Effect of Brevetoxin BTX-3 and Ciguatoxin CTX3C in Human Voltage-Gated Nav1.6 Sodium Channels” (Chemical Research in Toxicology, 2023).
Where two headings read alike, the source gives them in different places.

Legend:
[1] = target: T1, human Nav1.6 voltage-gated sodium channels (Homo sapiens, UniProt Q9UQD0); test: Whole-cell patch-clamp recording of sodium current activation (peak INa, activation voltage) in HEK293 cells transfected with Nav1.6; type: cell-based; details: for +10 nM BTX-3 normalized INa (max) / normalized INa (max): control = –1; for normalized INa (max): CTX3C alone; for shift in the activation voltage for CTX3C: vs control
T1 construct: host or cells: HEK293
T1 sequence (Q9UQD0 whole entry): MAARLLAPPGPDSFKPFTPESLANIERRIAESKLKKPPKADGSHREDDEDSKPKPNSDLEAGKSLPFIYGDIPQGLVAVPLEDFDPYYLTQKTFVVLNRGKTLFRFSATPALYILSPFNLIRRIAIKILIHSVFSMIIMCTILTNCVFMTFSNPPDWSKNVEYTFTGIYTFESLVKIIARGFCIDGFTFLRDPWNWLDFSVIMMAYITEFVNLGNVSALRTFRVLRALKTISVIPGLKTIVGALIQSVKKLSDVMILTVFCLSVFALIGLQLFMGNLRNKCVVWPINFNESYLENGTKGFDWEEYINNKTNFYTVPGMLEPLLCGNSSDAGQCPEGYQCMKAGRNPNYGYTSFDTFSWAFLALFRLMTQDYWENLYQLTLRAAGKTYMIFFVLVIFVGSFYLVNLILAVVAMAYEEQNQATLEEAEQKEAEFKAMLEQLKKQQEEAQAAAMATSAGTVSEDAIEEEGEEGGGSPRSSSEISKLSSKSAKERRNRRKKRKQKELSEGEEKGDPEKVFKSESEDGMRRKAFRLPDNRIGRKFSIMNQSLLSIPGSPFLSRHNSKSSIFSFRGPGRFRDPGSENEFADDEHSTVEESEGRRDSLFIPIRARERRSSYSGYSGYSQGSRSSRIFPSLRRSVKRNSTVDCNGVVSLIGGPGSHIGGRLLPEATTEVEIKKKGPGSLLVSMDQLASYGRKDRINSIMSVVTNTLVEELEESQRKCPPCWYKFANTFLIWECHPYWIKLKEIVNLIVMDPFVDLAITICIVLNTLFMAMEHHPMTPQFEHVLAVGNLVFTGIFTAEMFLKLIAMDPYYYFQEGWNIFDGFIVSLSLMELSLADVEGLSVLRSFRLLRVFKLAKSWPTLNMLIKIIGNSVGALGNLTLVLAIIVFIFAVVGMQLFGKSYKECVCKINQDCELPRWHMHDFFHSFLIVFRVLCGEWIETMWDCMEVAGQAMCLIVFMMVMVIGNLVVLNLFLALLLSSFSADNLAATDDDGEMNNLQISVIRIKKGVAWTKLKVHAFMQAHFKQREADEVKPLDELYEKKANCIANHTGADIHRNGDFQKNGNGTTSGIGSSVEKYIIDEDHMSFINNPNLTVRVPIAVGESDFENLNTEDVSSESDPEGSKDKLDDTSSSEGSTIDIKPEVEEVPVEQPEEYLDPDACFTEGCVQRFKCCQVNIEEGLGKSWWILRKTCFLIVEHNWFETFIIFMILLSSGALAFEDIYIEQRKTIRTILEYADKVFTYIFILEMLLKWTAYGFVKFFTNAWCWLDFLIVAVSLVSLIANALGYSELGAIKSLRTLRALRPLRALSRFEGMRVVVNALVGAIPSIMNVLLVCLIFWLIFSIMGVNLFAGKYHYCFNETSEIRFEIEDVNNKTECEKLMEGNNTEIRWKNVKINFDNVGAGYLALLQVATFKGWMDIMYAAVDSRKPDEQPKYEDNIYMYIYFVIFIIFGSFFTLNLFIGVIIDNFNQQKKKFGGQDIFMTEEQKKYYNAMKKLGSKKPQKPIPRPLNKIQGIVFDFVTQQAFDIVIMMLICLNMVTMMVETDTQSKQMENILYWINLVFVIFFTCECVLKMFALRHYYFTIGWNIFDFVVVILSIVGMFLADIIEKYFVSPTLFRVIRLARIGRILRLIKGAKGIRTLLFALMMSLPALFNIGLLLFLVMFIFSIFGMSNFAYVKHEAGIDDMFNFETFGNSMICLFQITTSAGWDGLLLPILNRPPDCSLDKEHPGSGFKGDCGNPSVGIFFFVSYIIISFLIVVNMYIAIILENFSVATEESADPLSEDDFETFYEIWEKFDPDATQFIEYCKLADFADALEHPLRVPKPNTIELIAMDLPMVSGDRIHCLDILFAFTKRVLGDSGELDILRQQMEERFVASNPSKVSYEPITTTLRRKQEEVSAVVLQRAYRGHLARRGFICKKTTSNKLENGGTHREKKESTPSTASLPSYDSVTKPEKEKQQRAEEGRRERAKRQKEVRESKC
Procedure: (§1) The human embryonic kidney cell line (HEK293) transfected with the α subunit of the Nav1.6 sodium channel isoform was kindly provided, under a material transfer agreement, by GlaxoSmithKline R&D (Stevenage, U.K). The cells were cultured in Dulbecco’s modified Eagle’s medium (DMEM)/F12 medium enriched with glutamax, nonessential amino acid solution (MEM, Gibco, 1% w/v), 10% fetal bovine serum, and 0.4 mg/mL Geneticin (G418, Gibco) and maintained at 37 °C in a humidified 95% […]/5% CO2 atmosphere until they reached 80% of confluence, replacing the medium every 2 days. The cells were subcultured in 12-well plates in glass coverslips at a density of 60,000 cells/mL. Twenty-four or 48 h before electrophysiological recordings, the cells were placed at 30 °C to maximize sodium channel expression.[32]
(§2) For electrophysiological recordings, glass coverslips with cells were placed in a recording chamber with 0.5 mL Lockés buffer as the extracellular solution. Recording electrodes were fabricated with borosilicate glass microcapillaries (1.5 outer diameter) and had resistances ranging from 4 to 10 MΩ. Pipettes were filled with an intracellular solution containing 120 mM CsF, 10 mM EGTA, 10 mM HEPES, and 15 mM NaCl and pH adjusted to 7.25 with CsOH. Voltage-gated sodium currents were recorded at room temperature 5 min after reaching the whole-cell configuration with a Multiclamp 700B amplifier and digitalized with the Digidata 1440A (both from Axon Instruments, California, U.S.A.) maintaining the cells at a holding potential (Vhold) of −55 mV. Signals were sampled at 50 kHz after low-pass Bessel filtering at 10 kHz. Compensation circuitry was used to reduce the series resistance by at least 70%. To record the activation of VGSCs, voltage steps from −80 to +80 mV in 10 mV step increments were applied prior to a test pulse of −90 mV. Fast inactivation was measured at 0 mV after prior test pulses of 300 ms duration ranging from −100 to 0 mV in 10 mV voltage step increments after maintaining the holding potential at −90 mV during 10 ms.
(§3) All data are expressed as means ± SEMs of n determinations. Data analysis was performed using GraphPad Prism 8. Statistical comparisons were performed using one-way analysis of variance (ANOVA), followed by post hoc Dunnett̀s tests. p values ≤ 0.05 were considered statistically significant, and IC50 values were determined by fitting the data with a log (inhibitor) vs normalized response model.
(§4) The combination index (CI) was calculated with the Chou–Talalay equation[33] following the formula [drawing 1] 1 where (DX)1 is the IC50 value of CTX3C alone, (DX)2 the IC50 value of BTX-3 alone, and D1 and D2 are the IC50 values of CTX3C and BTX-3, respectively, in combination. According to the Chou–Talalay method, additivity is established if CI = 1, synergism if CI < 1, and antagonism if CI > 1.

[2] = target: T1, human Nav1.6 voltage-gated sodium channels; test: Whole-cell patch-clamp recording of fast inactivation of sodium channels in HEK293 cells transfected with Nav1.6; type: cell-based; details: for IC50: read-out: IC50, hyperpolarizing shift in the inactivation voltage
Procedure: as §1, §2, §3, §4

[3] = target: rat brain sodium channels; details: cited from earlier work; for Ki: binding affinity to rat brain sodium channels, read-out: inhibitory constant (ki)

C=C(CO)CC1CC(O)C2(C)OC3CC4OC5CC6(C)OC7(C)CCC8OC9CC%10(C)OC%11C(C)=CC(=O)OC%11CC%10OC9CC(C)C8OC7CC6OC5(C)C/C=C\C4OC3CC2O1 (stereo not shown) [BTX-3, brevetoxin 3]
agonist profile on the channels (negative displacement in the activation voltage) [1]: partial agonist
decrease in the maximum INa at −20 mV [1]: 21.9 ± 10.9%
decrease of peak sodium current amplitude [1]: 31.2 ± 15%
increased potency on the activation voltage after combination [1]: 10 times
maximum INa at −20 mV [1]: −2887.70 ± 402.0 pA
IC50 ([1]; read-out: IC50, negative shift in the activation voltage): 46.2 nM
IC50 ([1]; read-out: IC50, percent inhibition of the peak inward sodium currents (INa)): 202 nM
IC50 [2]: 4700 nM

CC1CC2OC3C(CC2OC2CC4OC5CC=CCC6OC7C=CC8OC9C(CC8OC7CC=CC6OC5CC(O)C4(C)OC2C1)OC1CC=CCOC1C9O)OC1C(C)C(C)C2(CCCO2)OC1C(O)C3C (stereo not shown) [CTX3C, ciguatoxin 3C]
agonist profile on the channels (negative displacement in the activation voltage) [1]: full agonist
effect on maximum INa peak ([1]; 0.17 nM CTX3C): a decrease of the maximum INa peak was elicited
effect on the activation voltage ([1]; 0.17 nM CTX3C alone): no changes in the activation voltage were observed
+10 nM BTX-3 normalized INa (max) ([1]; CTX3C 0.0001 nM in the presence of 10 nM BTX-3): –0.89 ± 0.08
+10 nM BTX-3 normalized INa (max) ([1]; CTX3C 0.001 nM in the presence of 10 nM BTX-3): –0.89 ± 0.13
+10 nM BTX-3 normalized INa (max) ([1]; CTX3C 0.01 nM in the presence of 10 nM BTX-3): –0.88 ± 0.13
+10 nM BTX-3 normalized INa (max) ([1]; CTX3C 0.1 nM in the presence of 10 nM BTX-3): –0.90 ± 0.11
+10 nM BTX-3 normalized INa (max) ([1]; CTX3C 1 nM in the presence of 10 nM BTX-3): –0.68 ± 0.09
+10 nM BTX-3 normalized INa (max) ([1]; CTX3C 5 nM in the presence of 10 nM BTX-3): –0.46 ± 0.09
normalized INa (max) ([1]; 0.0001 nM): –0.79 ± 0.05
normalized INa (max) ([1]; 0.001 nM): –0.62 ± 0.08
normalized INa (max) ([1]; 0.01 nM): –0.66 ± 0.09
normalized INa (max) ([1]; 0.1 nM): –0.63 ± 0.09
normalized INa (max) ([1]; 1 nM): –0.27 ± 0.07
normalized INa (max) ([1]; 5 nM): –0.32 ± 0.04
activation voltage for CTX3C ([1]; [CTX3C] 0.0001 nM): –30.0 ± 0 mV
shift in the activation voltage for CTX3C ([1]; [CTX3C] 0.0001 nM): 0.71 ± 5.4 mV
activation voltage for CTX3C ([1]; [CTX3C] 0.001 nM): –30.0 ± 0 mV
activation voltage for CTX3C ([1]; [CTX3C] 0.01 nM): –33.3 ± 3.3 mV
shift in the activation voltage for CTX3C ([1]; [CTX3C] 0.01 nM): –2.62 ± 5.6 mV
activation voltage for CTX3C ([1]; [CTX3C] 0.1 nM): –39.0 ± 1.8 mV
shift in the activation voltage for CTX3C ([1]; [CTX3C] 0.1 nM): –8.29 ± 3.3 mV
activation voltage for CTX3C ([1]; [CTX3C] 1 nM): –46.7 ± 2.9 mV
activation voltage for CTX3C ([1]; [CTX3C] 5 nM): –51.67 ± 4.8 mV
shift in the activation voltage for CTX3C ([1]; [CTX3C] 5 nM): –20.95 ± 4.8 mV
peak sodium current at −10 mV ([1]; after bath application of 1 nM CTX3C, control −1156 ± 189 pA): −692 ± 372 pA
increased potency on the activation voltage after combination ([1]; combination of CTX3C and BTX-3 vs each alone): 10 times
IC50 ([1]; single toxin alone, read-out: IC50, negative shift in the activation voltage): 2.58 nM
IC50 ([1]; single toxin alone, read-out: IC50, percent inhibition of the peak inward sodium currents (INa)): 0.173 nM
inactivation voltage for CTX3C (V1/2) ([2]; [CTX3C] 0.001 nM): –50.1 ± 4.1 mV
inactivation voltage for CTX3C (V1/2) ([2]; [CTX3C] 0.01 nM): –47.4 ± 1.4 mV
inactivation voltage for CTX3C (V1/2) ([2]; [CTX3C] 0.1 nM): –53.4 ± 6.8 mV
inactivation voltage for CTX3C (V1/2) ([2]; [CTX3C] 1 nM): –54.9 ± 5 mV
IC50 ([2]; single toxin alone): 306 nM
Ki [3]: 0.47 nM
higher affinity than that of BTX-3s ([3]; binding to VGSC, at concentrations of 1 nM of the compounds): 20 fold

C[C@@H]1C[C@@H]2O[C@@H]3[C@@H](C)[C@H](O)[C@@H]4O[C@]5(C[C@H](O)CO5)[C@@H](C)[C@H](C)[C@H]4O[C@H]3C[C@H]2O[C@H]2C[C@H]3O[C@H]4C/C=C\C[C@H]5O[C@H]6C=C[C@H]7O[C@H]8[C@H](O)[C@H]9O[C@@H](/C=C/[C@H](O)CO)C=CC[C@@H]9O[C@@H]8C[C@@H]7O[C@@H]6C=C[C@@H]5O[C@@H]4C[C@@H](O)[C@]3(C)O[C@@H]2C1 [ciguatoxin-1B]
Ki [3]: 0.041 nM
ki difference relative to BTX-1 ([3]; ciguatoxin-1B vs BTX-1): more than 50 fold
